According to PMC10636063, “Progesterone activation of β1-containing BK channels involves two binding sites” (Nature Communications, 2023):
Where “and” joins values, the source holds several entries; their conditions need not be identical. Equal values may be shown once.

Key:
[1] = target: T1, β1Y32V,W163I (double mutant) (Rattus norvegicus, UniProt P97678, W163I/Y32V); test: Thermal unfolding (MST) of β1 double mutant; assay type: binding
T1 construct: FLAG (DYKDDDDK); made in house; host or cells: CHO cells, transient transfection, anti-flag immunoprecipitation
T1 sequence (P97678 whole entry Y32V/W163I): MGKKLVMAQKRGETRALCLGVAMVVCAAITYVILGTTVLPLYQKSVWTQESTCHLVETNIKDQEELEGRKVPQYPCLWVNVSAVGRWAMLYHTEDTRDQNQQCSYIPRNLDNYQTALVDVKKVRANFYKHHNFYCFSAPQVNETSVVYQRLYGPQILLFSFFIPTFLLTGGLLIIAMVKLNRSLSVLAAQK
Description: (§1) BK channel-forming slo1 cDNA (cbv1 isoform; AY330293) was cloned from rat cerebral artery SM cells, and inserted into pcDNA3.1 vector as described. BK β1 cDNA (KCNMB1 product; NP_011452; FJ154955) were isolated from rat cerebral artery SM cells and cloned as described. β4 cDNA (KCNMB4; NP_055320; AY028605) were generously provided by Dr. Ligia Toro. CHO cells were transiently transfected with cbv1 ± β1-, or β4-carrying pcDNA3.1 using X-tremeGENE HP (Sigma-Aldrich). Mutations to β1/4 cDNAs were conducted by Genscript, with sequences being confirmed to be >99% identical to KCNMB1 product; NP_011452 or β4 KCNMB4; NP_055320; respectively. β1/4 and mutant constructs were flag-tagged (DYKDDDDK-tag) by Genscript services for subsequent immunoprecipitation and use in microscale thermophoresis studies.
Wt β1, wt β4 and mutant constructs were purified by immunoprecipitation using Dynabeads Protein G Kit (10007D by Invitrogen) and following the manufacturer’s instructions. […] The unfolding profile of a protein is a plot of its fluorescence signal against temperature. […] During the heating process, fluorescence is recorded at 330 and 350 nm. The resulting fluorescence ratio change is then analyzed for onset and inflection points. The temperature of onset and inflection is determined using built-in analysis function in Nanotemper PR.therm-control software. […]

[2] = target: T2, slo1 (cbv1) homotetramers (Rattus norvegicus, UniProt Q62976); test: Channel activity (NPo) in POPE/POPS bilayers, cbv1 homomers; assay type: biochemical
T2 construct: made in house; host or cells: CHO cells, transient transfection; sucrose-gradient membrane preparation
T2 sequence (Q62976 1-1148 isoform Q62976-2): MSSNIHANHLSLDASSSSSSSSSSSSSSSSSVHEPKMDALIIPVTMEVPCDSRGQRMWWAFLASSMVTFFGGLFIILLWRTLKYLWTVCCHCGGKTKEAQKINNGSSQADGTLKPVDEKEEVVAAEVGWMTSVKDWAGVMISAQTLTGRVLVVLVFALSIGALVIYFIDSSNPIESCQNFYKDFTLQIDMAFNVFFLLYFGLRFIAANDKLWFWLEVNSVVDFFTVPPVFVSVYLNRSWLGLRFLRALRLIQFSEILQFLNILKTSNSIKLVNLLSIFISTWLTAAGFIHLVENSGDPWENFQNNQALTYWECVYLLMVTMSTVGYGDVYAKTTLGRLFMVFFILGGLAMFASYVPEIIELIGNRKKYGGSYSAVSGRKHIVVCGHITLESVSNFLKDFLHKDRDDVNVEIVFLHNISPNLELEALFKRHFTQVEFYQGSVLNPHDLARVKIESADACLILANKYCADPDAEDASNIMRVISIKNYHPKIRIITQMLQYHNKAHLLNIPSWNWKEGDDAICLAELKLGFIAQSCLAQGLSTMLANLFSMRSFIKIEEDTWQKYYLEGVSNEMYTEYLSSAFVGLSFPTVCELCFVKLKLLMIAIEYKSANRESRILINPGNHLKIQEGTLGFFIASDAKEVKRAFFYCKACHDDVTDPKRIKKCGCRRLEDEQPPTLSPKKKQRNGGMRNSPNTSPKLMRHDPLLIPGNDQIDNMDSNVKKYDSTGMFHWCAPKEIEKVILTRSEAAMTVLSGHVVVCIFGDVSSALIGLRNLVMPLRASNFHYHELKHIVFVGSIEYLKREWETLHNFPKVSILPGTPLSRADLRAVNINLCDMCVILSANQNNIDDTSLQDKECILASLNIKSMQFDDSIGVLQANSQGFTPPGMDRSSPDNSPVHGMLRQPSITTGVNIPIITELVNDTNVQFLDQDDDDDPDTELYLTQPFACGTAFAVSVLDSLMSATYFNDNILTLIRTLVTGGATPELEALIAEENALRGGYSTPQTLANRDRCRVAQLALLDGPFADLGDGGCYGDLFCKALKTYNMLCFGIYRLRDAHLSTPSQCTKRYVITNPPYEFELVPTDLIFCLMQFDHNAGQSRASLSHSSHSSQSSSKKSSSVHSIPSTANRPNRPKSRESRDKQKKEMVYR
Description: as §1
(§2) Proteins for electrophysiological recordings in artificial lipid bilayers remained untagged. Cells were transiently transfected as described above, pelleted and re-suspended on ice in 10 ml of buffer solution of the following composition (mM): 30 KCl, 2 MgCl2, 10 HEPES, 5 EGTA; pH 7.2. A membrane preparation was obtained using a sucrose gradient as described. Aliquots were stored at −80 °C. BK channel-mediated ionic current was recorded in planar lipid bilayers consisting of a POPE:POPS 3:1 (w/w) mixture. Lipid mixtures were dried under N2 and re-suspended in 25 mg/ml of n-decane BK currents following incorporation into horizontal bilayers at 300/30 mM cis/trans gradient as detailed elsewhere. Ion currents were obtained during a 10-min gap-free recording at 0 mV in the presence of 0.01, 10 μM PROG, 10 μM PROG-oxime, or vehicle control (dimethyl sulfoxide; DMSO). Currents were obtained in gap-free mode using a Warner BC-525D amplifier, low pass-filtered at 1 kHz and sampled at 5 kHz with Digidata 1550B/pCLAMP 11 (Molecular Devices). For comparison with previous data from us[16],[17],[45]–[47], studies were conducted at 20–22 °C. PROG stock, oxime stock or vehicle control (DMSO) was added to the bilayer cis chamber to reach final concentrations (0.01–10 µM), with all compounds being dissolved with the same concentration of DMSO (0.1%); n = 5–10 for each group.
(§3) Patch-clamp and bilayer data were analyzed using Clampfit 10.7 software (Molecular Devices). NPo was used as an index of channel steady-state activity where N = number of channels in the patch (defined as a maximal number of opening levels at Po≤1) and Po=single channel open probability. Drug-induced NPo changes were determined by comparing baseline NPo (i.e., NPo with the patch/cell perfused with bath solution) to the NPo from the same patch/cell exposed to the agent under study (DMSO/PROG/oxime) dissolved in bath solution. NPo and mean open time values were automatically calculated using Clampfit 10.7, the latter using a 50% threshold detection event.

[3] = test system: slo1 (cbv1 isoform)+β4 BK channels; test: Channel activity (NPo) in POPE/POPS bilayers, cbv1+β4; assay type: biochemical, rat; settings: 10 μM
Description: (§4) BK channel-forming slo1 cDNA (cbv1 isoform; AY330293) was cloned from rat cerebral artery SM cells, and inserted into pcDNA3.1 vector as described. BK β1 cDNA (KCNMB1 product; NP_011452; FJ154955) were isolated from rat cerebral artery SM cells and cloned as described. β4 cDNA (KCNMB4; NP_055320; AY028605) were generously provided by Dr. Ligia Toro. CHO cells were transiently transfected with cbv1 ± β1-, or β4-carrying pcDNA3.1 using X-tremeGENE HP (Sigma-Aldrich). […]
(§5) Proteins for electrophysiological recordings in artificial lipid bilayers remained untagged. […] BK channel-mediated ionic current was recorded in planar lipid bilayers consisting of a POPE:POPS 3:1 (w/w) mixture. […]
(§6) Patch-clamp and bilayer data were analyzed using Clampfit 10.7 software (Molecular Devices). […] Drug-induced NPo changes were determined by comparing baseline NPo (i.e., NPo with the patch/cell perfused with bath solution) to the NPo from the same patch/cell exposed to the agent under study (DMSO/PROG/oxime) dissolved in bath solution. NPo and mean open time values were automatically calculated using Clampfit 10.7, the latter using a 50% threshold detection event.

[4] = target: T3, cbv1+β1W163I (Rattus norvegicus, UniProt P97678, W163I); test: Channel activity (NPo) in POPE/POPS bilayers, cbv1+β1W163I; assay type: biochemical; settings: for normalized NPo, time course Fig 2E: W163I PROG
T3 construct: made in house; host or cells: CHO cells, transient transfection; sucrose-gradient membrane preparation
T3 sequence (P97678 whole entry W163I): as the sequence (P97678 whole entry Y32V/W163I) above, with V32Y counted along it
T3 sequence (Q62976 1-1148 isoform Q62976-2 partner): as the sequence (Q62976 1-1148 isoform Q62976-2) above
Description: as §1, §2, §3

[5] = target: T4, cbv1+β1W87F (Rattus norvegicus, UniProt P97678, W87F); test: Channel activity (NPo) in POPE/POPS bilayers, cbv1+β1W87F; assay type: biochemical
T4 construct: made in house; host or cells: CHO cells, transient transfection; sucrose-gradient membrane preparation
T4 sequence (P97678 whole entry W87F): as the sequence (P97678 whole entry Y32V/W163I) above, with V32Y, W87F, I163W counted along it
T4 sequence (Q62976 1-1148 isoform Q62976-2 partner): as the sequence (Q62976 1-1148 isoform Q62976-2) above
Description: as §4, §5, §6

With `CC(=O)[C@H]1CC[C@H]2[C@@H]3CCC4=CC(=O)CC[C@]4(C)[C@H]3CC[C@]12C` [PROG, Progesterone] as the molecule, how does the “effect on thermal unfolding / binding” value ([1]; 4.1 μM) read?
The value was “not destabilized”.

What about the “effect on thermal unfolding / binding” value ([1]; low concentrations (subμM)) of the same molecule?
Its value is “still destabilized”.

And the NPo/NPobasal ([2]; 10 µM PROG, min 2, single records)?
Its NPo/NPobasal is 1.014 and 0.7178 and 0.9853 and 1 and 0.9322.

What about the NPo/NPobasal ([2]; 10 µM PROG, min 4, single records) of the same molecule?
Its NPo/NPobasal is 1.047 and 1.067 and 1.015 and 1.069 and 1.029.

And the NPo/NPobasal ([2]; 10 µM PROG, min 5, single records)?
Its NPo/NPobasal is 1.023 and 1.182 and 1.11 and 1.053 and 1.066.

What about the NPo/NPobasal ([2]; 10 µM PROG, min 6, single records) of the same molecule?
Its NPo/NPobasal is 1.028 and 1.207 and 1.088 and 1.041 and 1.129.

What about the NPo/NPobasal ([2]; 10 µM PROG, min 7, single records) of the same molecule?
Its NPo/NPobasal is 0.8935 and 1.1318 and 1.162 and 1.118 and 1.064.

What about the NPo/NPobasal ([2]; 10 µM PROG, min 8, single records) of the same molecule?
Its NPo/NPobasal is 1.148 and 1.63 and 1.096 and 1.061 and 1.045.

What about the NPo/NPobasal ([2]; 10 µM PROG, min 10, single records) of the same molecule?
The NPo/NPobasal was 1.394 and 1.416 and 1.11 and 0.7114 and 1.049.

What about the “maximal activity (NPo/NPobasal)” value ([2]; 10 µM PROG, single records (Fig 1I)) of the same molecule?
The value was 1.053 and 1.066 and 1.023 and 1.182 and 1.11.

And the “action on channel activity (NPo)” value ([2]; 10 μM, up to 10 min)?
Its value is “consistently failed to activate the homomeric channels”.

And the “action on channel activity (NPo)” value [3]?
Its value is “readily and robustly activated”.

And the “action on channel activity (NPo)” value ([4]; 10 µM, vs DMSO)?
The value was “effectively abolished PROG action”.

What about the “normalized NPo, time course Fig 2E” value ([4]; time 1 min (normalisation reference)) of the same molecule?
Its value is 1.

What about the “normalized NPo, time course Fig 2E” value ([4]; time 2 min) of the same molecule?
The value was 0.8408 and 0.8822 and 1.039 and 0.6048 and 0.9835.

And the “normalized NPo, time course Fig 2E” value ([4]; time 6 min)?
The value was 0.9156 and 1.236 and 1.01 and 0.7339 and 0.9865.

And the “normalized NPo, time course Fig 2E” value ([4]; time 7 min)?
Its value is 1.033 and 1.222 and 0.6583 and 1.166.

And the “normalized NPo, time course Fig 2E” value ([4]; time 8 min)?
The value was 0.9156 and 0.8317 and 0.9282 and 1.117.

What about the “normalized NPo, time course Fig 2E” value ([4]; time 9 min) of the same molecule?
Its value is 1.0966 and 0.7071 and 0.5738 and 1.067.

What about the “normalized NPo, time course Fig 2E” value ([4]; time 10 min) of the same molecule?
The value was 1.291 and 0.8215 and 0.6728 and 1.157.

And the “action on channel activity (NPo)” value ([5]; 10 µM, vs vehicle)?
The value was “effectively abolished PROG action”.

What about the “normalized NPo, time course Fig 4E” value ([5]; cbv1+w87F prog, time 1 min (normalisation reference)) of the same molecule?
The value was 1.
